Experiment [1] concerns the target T1, human adrenergic-α2C receptor (Homo sapiens, UniProt P18825).
T1 construct: expressed in transfected cells; membrane preparation
T1 sequence (P18825 1-462): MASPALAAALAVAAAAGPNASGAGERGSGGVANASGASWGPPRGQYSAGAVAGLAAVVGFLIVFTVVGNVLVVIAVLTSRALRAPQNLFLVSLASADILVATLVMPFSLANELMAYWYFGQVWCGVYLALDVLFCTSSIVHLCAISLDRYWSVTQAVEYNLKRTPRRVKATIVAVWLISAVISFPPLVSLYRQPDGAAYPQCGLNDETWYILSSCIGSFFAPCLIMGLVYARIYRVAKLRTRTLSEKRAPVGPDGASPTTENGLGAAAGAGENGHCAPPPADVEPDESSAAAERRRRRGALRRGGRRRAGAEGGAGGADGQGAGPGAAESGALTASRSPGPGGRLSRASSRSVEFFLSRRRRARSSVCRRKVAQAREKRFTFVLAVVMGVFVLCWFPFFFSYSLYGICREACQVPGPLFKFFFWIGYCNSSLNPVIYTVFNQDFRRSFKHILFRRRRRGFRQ
As to the kind of experiment: Radioligand binding experiment for α2C-adrenoceptor ([3H]-raulwolscine competition, CHO cell membranes). To be noted: [3H]raulwolscine 1 nM, membranes of CHO cells transfected with human α2C receptor; for IC50: read-out: pIC50 α2C (converted). The protocol:
(§1) The interaction of the compounds of Formula (I) with α2C-adrenoceptor receptors was assessed in in vitro radioligand binding experiments. In general, a low concentration of a radioligand with a high binding affinity for a particular receptor or transporter is incubated with a sample of a tissue preparation enriched in a particular receptor or transporter or with a preparation of cells expressing cloned human receptors in a buffered medium. During the incubation, the radioligand binds to the receptor or transporter. When equilibrium of binding is reached, the receptor bound radioactivity is separated from the non-bound radioactivity, and the receptor- or transporter-bound activity is counted. The interaction of the test compounds with the receptor is assessed in competition binding experiments. Various concentrations of the test compound are added to the incubation mixture containing the receptor- or transporter preparation and the radioligand. The test compound in proportion to its binding affinity and its concentration inhibits binding of the radioligand. The radioligand used for […] receptor binding was [^3H]-raulwolscine.
(§2) CHO cells, stabile transfected with human adrenergic-α2A-, -α2B or α2C receptor cDNA, were cultured in Dulbecco's Modified Eagle's Medium (DMEM)/Nutrient mixture Ham's F12 (ratio 1:1)(Gibco, Gent-Belgium) supplemented with 10% heat inactivated fetal calf serum (Life Technologies, Merelbeke-Belgium) and antibiotics (100 IU/ml penicillin G, 100 μg/ml streptomycin sulphate, 110 μg/ml pyruvic acid and 100 μg/ml L-glutamine). One day before collection, cells were induced with 5 mM sodiumbutyrate. Upon 80-90% of confluence, cells were scraped in phosphate buffered saline without Ca^2+ and Mg^2+ and collected by centrifugation at 1500×g for 10 min. The cells were homogenised in Tris-HCl 50 mM using an Ultraturrax homogenizer and centrifuged for 10 min at 23,500×g. The pellet was washed once by resuspension and rehomogenization and the final pellet was resuspended in Tris-HCl, divided in 1 ml aliquots and stored at −70° C.
(§3) Membranes were thawed and re-homogenized in incubation buffer (glycylglycine 25 mM, pH 8.0). In a total volume of 500 μl, 2-10 μg protein was incubated with [^3H]raulwolscine (NET-722) (New England Nuclear, USA) (1 nM final concentration) with or without competitor for 60 min at 25° C. followed by rapid filtration over GF/B filter using a Filtermate196 harvester (Packard, Meriden, Conn.). Filters were rinsed extensively with ice-cold rinsing buffer (Tris-HCl 50 mM pH 7.4). Filter-bound radioactivity was determined by scintillation counting in a Topcount (Packard, Meriden, CT) and results were expressed as counts per minute (cpm). Non-specific binding was determined in the presence of 1 μM oxymetazoline for hα2A- and hα2B receptors and 1 μM spiroxatrine for hα2C receptors.
(§4) Data from assays in the presence of compound were calculated as a percentage of total binding measured in the absence of test compound. Inhibition curves, plotting percent of total binding versus the log value of the concentration of the test compound, were automatically generated, and sigmoidal inhibition curves were fitted using non-linear regression. The pIC50 values of test compounds were derived from individual curves.

In experiment [2] the target is T2, human adrenergic-α2A receptor (Homo sapiens, UniProt P08913).
T2 construct: expressed in transfected cells; membrane preparation
T2 sequence (P08913 1-465): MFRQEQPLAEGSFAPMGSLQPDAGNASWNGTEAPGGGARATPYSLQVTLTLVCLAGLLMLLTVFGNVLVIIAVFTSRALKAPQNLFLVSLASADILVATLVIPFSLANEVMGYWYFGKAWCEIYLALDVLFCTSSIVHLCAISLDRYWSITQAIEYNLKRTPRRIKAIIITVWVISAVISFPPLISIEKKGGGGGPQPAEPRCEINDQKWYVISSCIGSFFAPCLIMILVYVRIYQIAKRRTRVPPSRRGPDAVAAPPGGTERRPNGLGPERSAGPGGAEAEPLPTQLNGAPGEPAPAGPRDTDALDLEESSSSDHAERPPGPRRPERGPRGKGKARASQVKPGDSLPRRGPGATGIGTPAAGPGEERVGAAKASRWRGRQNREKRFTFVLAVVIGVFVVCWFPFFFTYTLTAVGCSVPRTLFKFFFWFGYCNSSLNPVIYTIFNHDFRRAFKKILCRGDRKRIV
As to the kind of experiment: Radioligand binding experiment for α2A-adrenoceptor ([3H]-raulwolscine competition, CHO cell membranes). The following applies: [3H]raulwolscine 1 nM, membranes of CHO cells transfected with human α2A receptor; read-out: pIC50 α2A (converted). The protocol:
as §1, §2, §3, §4

Experiment [3] addresses T3, human adrenergic-α2B receptor (Homo sapiens, UniProt P18089).
T3 construct: expressed in transfected cells; membrane preparation
T3 sequence (P18089 1-450): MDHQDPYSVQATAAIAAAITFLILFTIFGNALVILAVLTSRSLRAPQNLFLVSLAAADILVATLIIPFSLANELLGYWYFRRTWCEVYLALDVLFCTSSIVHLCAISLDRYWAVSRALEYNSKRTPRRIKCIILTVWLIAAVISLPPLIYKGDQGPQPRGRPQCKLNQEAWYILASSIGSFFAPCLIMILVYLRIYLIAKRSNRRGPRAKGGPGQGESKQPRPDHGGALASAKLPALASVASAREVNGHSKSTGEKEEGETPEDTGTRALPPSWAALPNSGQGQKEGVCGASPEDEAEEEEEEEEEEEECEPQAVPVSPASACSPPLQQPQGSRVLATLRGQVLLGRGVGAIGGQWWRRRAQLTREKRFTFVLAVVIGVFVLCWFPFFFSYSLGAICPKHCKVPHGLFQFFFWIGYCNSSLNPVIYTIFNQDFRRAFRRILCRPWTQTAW
As to the kind of experiment: Radioligand binding experiment for α2B-adrenoceptor ([3H]-raulwolscine competition, CHO cell membranes). To be noted: [3H]raulwolscine 1 nM, membranes of CHO cells transfected with human α2B receptor; for IC50: read-out: pIC50 α2B (converted). The protocol: as §1, §2, §3, §4

Regarding `CC(NCCOc1ccccc1)C(C)n1ncn(-c2ccc(N3CCN(c4ccc(O)cc4)CC3)cc2)c1=O` (single isomer, unassigned) [compound 7], the values for the IC50 in experiment [1], in experiment [2] and in experiment [3] were 7.94 nM, 126 nM and 126 nM, respectively.

Take `O=c1n(-c2ccc(CN3CCN(c4ccccc4)CC3)cc2)cnn1CCNCCOc1ccccc1` [compound 2]: the IC50 in experiment [1] is 25.1 nM; in experiment [2], 200 nM; in experiment [3], 200 nM.

In the case of `O=c1n(-c2ccc(N3CCN(Cc4ccccc4)CC3)cc2)cnn1CCNCCOc1ccccc1` [compound 3], the IC50 in experiment [1] is 15.8 nM; in experiment [2] it was 398 nM; in experiment [3], 251 nM.

As to `COc1ccc(N2CCN(c3ccc(-n4cnn(CCNCCOc5ccccc5)c4=O)cc3)CC2)cc1` [compound 8], the values for the IC50 in experiment [1], in experiment [2] and in experiment [3] were 15.8 nM, 631 nM and 158 nM, respectively.

Turning to `COc1ccc(N2CCN(c3ccc(-n4cnn(C(C)C(C)NCCOc5ccccc5)c4=O)cc3)CC2)cc1` (stereo not drawn) [compound 10], the IC50 in experiment [1] is 15.8 nM; in experiment [2], 631 nM; in experiment [3], 501 nM.

`CN1CCCN(c2ccc(-n3cnn(CCNCCOc4ccccc4)c3=O)cc2)CC1` [compound 12]: the IC50 in experiment [1] is 1.58 nM; in experiment [2], 126 nM; in experiment [3] it was 100 nM.

Take `CN1CCCN(Cc2ccc(-n3cnn(CCNCCOc4ccccc4)c3=O)cc2)CC1` [compound 13]: the IC50 in experiment [1] is 1 nM; in experiment [2], 63.1 nM; in experiment [3], 63.1 nM.

As to `O=c1n(-c2ccc(CN3CCCC3)cc2)cnn1CCNCCOc1ccccc1` [compound 14], the IC50 in experiment [1] is 1 nM; in experiment [2] it was 50.1 nM; in experiment [3], 79.4 nM.

In the case of `O=c1n(CCN2CCCCC2)cnn1CCNCCOc1ccccc1` [compound 16], the results for the IC50 in experiment [1], in experiment [2] and in experiment [3] were 10 nM, 158 nM and 1580 nM, respectively.

For the compound `O=c1n(-c2ccc(CN3CCC(O)CC3)cc2)cnn1CCNCCOc1ccccc1` [compound 18], the IC50 was 1.58 nM in experiment [1], 50.1 nM in experiment [2] and 126 nM in experiment [3].

With `CCOC(=O)C1CCN(Cc2ccc(-n3cnn(CCNCCOc4ccccc4)c3=O)cc2)CC1` [compound 19], the figures for the IC50 in experiment [1], in experiment [2] and in experiment [3] were 3.16 nM, 63.1 nM and 251 nM, respectively.

With `O=c1n(-c2ccc(N3CCC(N4CCCC4)CC3)cc2)cnn1CCNCCOc1ccccc1` [compound 20], the IC50 was 3.98 nM in experiment [1], 100 nM in experiment [2] and 100 nM in experiment [3].

In the case of `O=c1n(-c2ccc(CN3CCC(N4CCCC4)CC3)cc2)cnn1CCNCCOc1ccccc1` [compound 21], the values for the IC50 in experiment [1], in experiment [2] and in experiment [3] were 1.58 nM, 39.8 nM and 79.4 nM, respectively.

Take `O=c1n(-c2ccc(CN3CCOCC3)cc2)cnn1CCNCCOc1ccccc1` [compound 23]: the IC50 in experiment [1] was 3.16 nM; in experiment [2], 158 nM; in experiment [3], 251 nM.

`O=c1n(-c2ccc(CN3CCOCC3)cc2)cnn1CCNCCOc1ccccc1` [compound 24]: the IC50 was 5.01 nM in experiment [1] and 251 nM in experiment [2]. Further, in experiment [3], the “pIC50 α2B” value stood at 6.6.

Turning to `O=c1n(-c2ccc(CN3CCc4ccccc4C3)cc2)cnn1CCNCCOc1ccccc1` [compound 27], the IC50 in experiment [1] was 1 nM; in experiment [2], 25.1 nM; in experiment [3] it was 79.4 nM.

As for `C/C(=C\c1ccccc1)CN1CCC(n2cnn(CCNCCOc3ccccc3)c2=O)CC1` [compound 28], the “pIC50 α2C” value in experiment [1] came out at 8.4. The IC50 is 126 nM in experiment [2] and 200 nM in experiment [3].

With `C/C(=C\c1ccccc1)CN1CCC(n2cnn(CCNCCOc3ccccc3)c2=O)CC1` [compound 29], the IC50 was 3.98 nM in experiment [1], 100 nM in experiment [2] and 126 nM in experiment [3].

As to `C/C(=C\c1ccccc1)CN1CCC(n2cnn(CCN(C)CCOc3ccccc3)c2=O)CC1` [compound 30], the IC50 in experiment [1] is 15.8 nM; in experiment [2], 398 nM; in experiment [3], 200 nM.

In the case of `C/C(=C\c1ccccc1)CN1CCC(n2cnn(-c3ccc(NCCN(C)C)cc3)c2=O)CC1` [compound 31], the IC50 in experiment [1] is 12.6 nM; in experiment [2], 50.1 nM; in experiment [3], 25.1 nM.

Consider `C/C(=C\c1ccccc1)CN1CCC(n2cnn(Cc3ccc(CN)cc3)c2=O)CC1` [compound 32], for which the IC50 in experiment [1] was 12.6 nM; in experiment [2], 126 nM; in experiment [3], 50.1 nM.

With `C/C(=C\c1ccccc1)CN1CCC(n2cnn(-c3ccc(CN)cc3)c2=O)CC1` [compound 33], the results for the IC50 in experiment [1], in experiment [2] and in experiment [3] were 15.8 nM, 15.8 nM and 63.1 nM, respectively.

For the compound `C/C(=C\c1ccccc1)CN1CCC(n2ncn(-c3ccc(CN)cc3)c2=O)CC1` [compound 34], the IC50 in experiment [1] was 10 nM; in experiment [2], 39.8 nM; in experiment [3] it was 50.1 nM.

Consider `NCc1ccc(-n2cnn(C3CCN(CCOc4ccccc4)CC3)c2=O)cc1` [compound 36], for which the IC50 in experiment [1] is 12.6 nM; in experiment [2] it was 39.8 nM; in experiment [3] it was 79.4 nM.

As for `NCc1ccc(Cn2cnn(C3CCN(CCOc4ccccc4)CC3)c2=O)cc1` [compound 37], the IC50 in experiment [1] was 3.98 nM; in experiment [2], 39.8 nM; in experiment [3], 25.1 nM.

With `CN(C)CCNc1ccc(-n2cnn(CC3CCN(CCOc4ccccc4)CC3)c2=O)cc1` [compound 38], the IC50 was 1.58 nM in experiment [1], 25.1 nM in experiment [2] and 3.98 nM in experiment [3].

The values above are taken from patent US20100029620A1, “SUBSTITUTED TRIAZOLINE, TETRAZOLONE AND IMIDAZOLONE DERIVATIVES FOR USE AS A MEDICINE” (JANSSEN PHARMACEUTICA N.V., priority 2004, published 2010).
